Assay results reported in the NIST ThermoML archive (doi:10.1016/j.jct.2005.09.005).
± gives the expanded uncertainty stated by the source.

Assay: molar heat capacity at constant pressure
Conditions: 101.33 kPa, Vacuum adiabatic calorimetry

[2H]O[2H] [water-d2]
molar heat capacity at constant pressure [J/K/mol]
Conditions | Crystal | Liquid
5 K | 0.0363 ± 0.01 | –
6.58 K | 0.0659 ± 0.011 | –
7.08 K | 0.141 ± 0.012 | –
7.56 K | 0.12 ± 0.011 | –
8.12 K | 0.158 ± 0.012 | –
8.61 K | 0.19 ± 0.012 | –
9.07 K | 0.222 ± 0.012 | –
9.51 K | 0.261 ± 0.012 | –
9.94 K | 0.305 ± 0.012 | –
10 K | 0.315 ± 0.012 | –
10.37 K | 0.358 ± 0.013 | –
10.8 K | 0.407 ± 0.013 | –
11.22 K | 0.462 ± 0.014 | –
11.65 K | 0.523 ± 0.014 | –
12.68 K | 0.659 ± 0.015 | –
13.4 K | 0.774 ± 0.016 | –
14.11 K | 0.8996 ± 0.017 | –
14.93 K | 1.051 ± 0.017 | –
15 K | 1.07 ± 0.02 | –
15.65 K | 1.193 ± 0.018 | –
16.38 K | 1.337 ± 0.019 | –
17.11 K | 1.492 ± 0.02 | –
17.84 K | 1.652 ± 0.021 | –
18.58 K | 1.814 ± 0.021 | –
19.33 K | 1.982 ± 0.022 | –
20 K | 2.125 ± 0.022 | –
20.08 K | 2.152 ± 0.022 | –
21.87 K | 2.524 ± 0.023 | –
24.35 K | 3.102 ± 0.025 | –
25 K | 3.246 ± 0.025 | –
26.84 K | 3.651 ± 0.025 | –
29.35 K | 4.206 ± 0.025 | –
30 K | 4.322 ± 0.049 | –
31.87 K | 4.729 ± 0.05 | –
34.41 K | 5.231 ± 0.051 | –
36.93 K | 5.723 ± 0.052 | –
39.46 K | 6.213 ± 0.052 | –
40 K | 6.304 ± 0.052 | –
41.98 K | 6.674 ± 0.053 | –
44.5 K | 7.12 ± 0.054 | –
47.01 K | 7.558 ± 0.055 | –
49.52 K | 8.018 ± 0.057 | –
50 K | 8.154 ± 0.057 | –
52.01 K | 8.514 ± 0.06 | –
54.5 K | 9.012 ± 0.06 | –
56.99 K | 9.486 ± 0.06 | –
59.48 K | 9.885 ± 0.06 | –
60 K | 9.968 ± 0.06 | –
62.01 K | 10.32 ± 0.06 | –
64.5 K | 10.83 ± 0.06 | –
66.98 K | 11.22 ± 0.07 | –
69.45 K | 11.66 ± 0.07 | –
70 K | 11.72 ± 0.07 | –
71.93 K | 12.02 ± 0.07 | –
74.43 K | 12.44 ± 0.07 | –
76.9 K | 12.74 ± 0.07 | –
79.38 K | 13.19 ± 0.07 | –
80 K | 13.39 ± 0.07 | –
81.85 K | 13.77 ± 0.07 | –
82.58 K | 13.86 ± 0.07 | –
84.31 K | 14.14 ± 0.07 | –
84.89 K | 14.3 ± 0.07 | –
87.37 K | 14.74 ± 0.07 | –
89.84 K | 15.12 ± 0.07 | –
90 K | 15.16 ± 0.22 | –
92.31 K | 15.57 ± 0.22 | –
94.78 K | 15.98 ± 0.22 | –
97.24 K | 16.41 ± 0.22 | –
99.71 K | 16.82 ± 0.22 | –
100 K | 16.89 ± 0.22 | –
102.17 K | 17.25 ± 0.22 | –
104.63 K | 17.71 ± 0.22 | –
107.09 K | 18.15 ± 0.22 | –
109.53 K | 18.67 ± 0.22 | –
110 K | 18.7 ± 0.22 | –
111.98 K | 19.03 ± 0.22 | –
114.42 K | 19.58 ± 0.22 | –
116.87 K | 19.92 ± 0.22 | –
119.31 K | 20.41 ± 0.22 | –
120 K | 20.48 ± 0.22 | –
121.79 K | 20.81 ± 0.22 | –
124.23 K | 21.21 ± 0.22 | –
126.67 K | 21.62 ± 0.22 | –
129.11 K | 22.03 ± 0.22 | –
130 K | 22.2 ± 0.22 | –
131.54 K | 22.45 ± 0.22 | –
133.98 K | 22.91 ± 0.22 | –
136.41 K | 23.27 ± 0.22 | –
138.85 K | 23.7 ± 0.22 | –
140 K | 23.89 ± 0.22 | –
141.28 K | 24.08 ± 0.22 | –
143.71 K | 24.5 ± 0.22 | –
146.14 K | 24.9 ± 0.22 | –
148.57 K | 25.31 ± 0.22 | –
150 K | 25.54 ± 0.22 | –
151 K | 25.71 ± 0.22 | –
153.43 K | 26.1 ± 0.22 | –
155.87 K | 26.52 ± 0.22 | –
158.32 K | 26.94 ± 0.22 | –
160 K | 27.2 ± 0.22 | –
160.81 K | 27.33 ± 0.22 | –
163.26 K | 27.73 ± 0.22 | –
165.71 K | 28.13 ± 0.22 | –
168.15 K | 28.55 ± 0.22 | –
170 K | 28.83 ± 0.23 | –
170.6 K | 28.97 ± 0.23 | –
173.05 K | 29.33 ± 0.23 | –
175.5 K | 29.73 ± 0.23 | –
177.94 K | 30.14 ± 0.23 | –
180 K | 30.47 ± 0.23 | –
180.39 K | 30.54 ± 0.23 | –
182.83 K | 30.96 ± 0.23 | –
185.28 K | 31.33 ± 0.23 | –
187.72 K | 31.71 ± 0.23 | –
190 K | 32.09 ± 0.23 | –
190.17 K | 32.11 ± 0.23 | –
192.61 K | 32.48 ± 0.23 | –
195.05 K | 32.9 ± 0.23 | –
197.5 K | 33.29 ± 0.23 | –
199.99 K | 33.7 ± 0.23 | –
200 K | 33.7 ± 0.23 | –
202.44 K | 34.08 ± 0.23 | –
204.88 K | 34.48 ± 0.23 | –
207.33 K | 34.88 ± 0.23 | –
210 K | 35.29 ± 0.23 | –
210.91 K | 35.46 ± 0.23 | –
213.05 K | 35.74 ± 0.23 | –
215.49 K | 36.17 ± 0.23 | –
217.93 K | 36.56 ± 0.23 | –
220 K | 36.86 ± 0.23 | –
220.38 K | 36.96 ± 0.24 | –
222.82 K | 37.34 ± 0.24 | –
225.26 K | 37.72 ± 0.24 | –
227.71 K | 38.06 ± 0.24 | –
230 K | 38.45 ± 0.24 | –
230.15 K | 38.5 ± 0.24 | –
232.58 K | 38.89 ± 0.24 | –
235.03 K | 39.22 ± 0.24 | –
237.47 K | 39.55 ± 0.24 | –
239.91 K | 39.99 ± 0.24 | –
240 K | 40.05 ± 0.24 | –
242.35 K | 40.38 ± 0.24 | –
244.78 K | 40.92 ± 0.24 | –
247.23 K | 41.27 ± 0.24 | –
249.73 K | 41.6 ± 0.24 | –
250 K | 41.64 ± 0.24 | –
252.17 K | 41.99 ± 0.24 | –
254.61 K | 42.32 ± 0.24 | –
257.04 K | 42.71 ± 0.24 | –
257.41 K | 42.2 ± 0.24 | –
259.48 K | 43.1 ± 0.24 | –
260 K | 43.16 ± 0.24 | –
261.91 K | 43.48 ± 0.24 | –
262.39 K | 43.37 ± 0.24 | –
264.34 K | 43.87 ± 0.24 | –
266.76 K | 44.33 ± 0.24 | –
269.18 K | 44.87 ± 0.24 | –
270 K | 44.55 ± 0.24 | –
271.59 K | 45.53 ± 0.25 | –
273.99 K | 47.53 ± 0.25 | –
274.34 K | – | 85.72 ± 0.25
276.82 K | 45.8 ± 0.25 | 85.38 ± 0.25
278.53 K | – | 85.14 ± 0.25
280 K | – | 84.97 ± 0.25
282.13 K | – | 84.72 ± 0.25
285.21 K | – | 84.64 ± 0.25
286.94 K | – | 84.47 ± 0.25
289.3 K | – | 84.14 ± 0.25
290 K | – | 84.05 ± 0.25
291.67 K | – | 83.97 ± 0.25
294.02 K | – | 83.81 ± 0.25
296.38 K | – | 83.72 ± 0.25
298.15 K | – | 83.47 ± 0.25
298.72 K | – | 83.56 ± 0.25
300 K | – | 83.39 ± 0.25
301.66 K | – | 83.39 ± 0.25
305.18 K | – | 83.14 ± 0.25
308.67 K | – | 83.08 ± 0.28
310 K | – | 82.96 ± 0.28
312.17 K | – | 82.92 ± 0.28
315.64 K | – | 82.85 ± 0.28
319.1 K | – | 82.78 ± 0.28
320 K | – | 82.7 ± 0.28
322.54 K | – | 82.69 ± 0.28
325.97 K | – | 82.58 ± 0.28
329.39 K | – | 82.62 ± 0.28
330 K | – | 82.52 ± 0.28
332.72 K | – | 82.55 ± 0.28
336.11 K | – | 82.57 ± 0.28
339.47 K | – | 82.65 ± 0.28
340 K | – | 82.67 ± 0.28
342.82 K | – | 82.74 ± 0.28
346.15 K | – | 82.71 ± 0.28
350 K | – | 82.8 ± 0.28
